# Data from patent US8343966B2, “Organic compounds” (Novartis AG, priority 2008, dated 2013).
# Target: T1, human ALK5 (ALK5 T204D kinase domain) (Homo sapiens, UniProt P36897, T204D)
# T1 construct: The kinase domain of human ALK5 (amino acids 200-503); made in house; host or cells: insect cells (baculovirus)
# T1 sequence (P36897 200-503 T204D): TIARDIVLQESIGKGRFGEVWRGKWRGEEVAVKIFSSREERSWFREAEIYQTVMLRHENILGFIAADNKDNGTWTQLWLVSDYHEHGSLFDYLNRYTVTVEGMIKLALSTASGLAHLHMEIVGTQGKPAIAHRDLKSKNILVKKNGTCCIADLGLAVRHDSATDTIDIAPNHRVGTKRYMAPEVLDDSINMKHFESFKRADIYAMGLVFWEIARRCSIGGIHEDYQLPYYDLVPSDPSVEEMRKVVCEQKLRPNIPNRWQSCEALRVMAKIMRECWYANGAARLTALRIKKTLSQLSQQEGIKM
# Test: ALK5 kinase assay, [33P] phosphate incorporation into casein
# Format: biochemical
# Conditions: casein substrate, 1 μM unlabelled ATP
# Protocol: The kinase activity of ALK5 is assessed by measuring radiolabelled phosphate [33P] incorporation in to the generic substrate, casein. The kinase domain of human ALK5 (amino acids 200-503) is fused to an N-terminal histidine tag. The kinase activity of ALK5 is rendered constitutive via point mutation at amino acid 204 (threonine to aspartate modification, ALK5 T204D) and the kinase construct is engineered to be expressed from a baculovirus expression construct in insect cells. The purified, recombinantly-expressed histidine-tagged ALK5 T204D protein is dissolved at 5.4 mg/ml in 50 mM Tris-HCl pH 8.0, 150 mM NaCl, 5 mM DTT. ALK5 T204D is dissolved to 2.5 μg/ml in assay buffer (Assay buffer: 20 mM Tris-HCl pH 7.4, 10 mM MgCl2, 2 mM MnCl2) on the day of use.
# Test compounds and reference compounds are dissolved in assay buffer without DTT containing 5% (v/v) DMSO. Stock solutions of test and reference compounds are diluted in assay buffer with DTT (1.25 mM) containing 4.5% (v/v) DMSO. 10 μl of test or reference compound are added to the appropriate wells of 96 well U-bottomed plate. Total enzyme activity is determined by measuring ALK5 T204D activity in the absence of ALK5 kinase inhibitor reference compounds. Non-specific binding (NSB) is determined by measuring the activity of ALK5 T204D in the presence of ALK5 kinase inhibitor reference compounds. 10 μl of dephosphorylated casein stock solution (dephosphorylated casein is dissolved in ddH2O at 20 mg/ml) is added per well (200 μg/well final assay concentration). 20 μl of ALK5 T204D (2.5 μg/ml solution) is added per well (50 ng/well final assay concentration). The plates are left to incubate at room temperature for 10 minutes.
# 10 μl of ATP mix is added to the well to initiate the reaction (0.66 nM [^33P]ATP/1 μM unlabelled ATP/well final assay concentration). The ATP mix is prepared as follows, unlabelled ATP (3 mM) is dissolved in ddH2O and pH adjusted to 7.4. The stock concentration of [^33P]ATP is 10 μCi/μl. The appropriate volume of [^33P]ATP is added to unlabelled ATP solution such that the final assay concentration per well is 0.1 μCi. Following addition of the ATP mix, the plates are incubated at room temperature for 50 minutes. The kinase reaction is terminated by the addition of 50 μL Stop Buffer (20 mM Tris-HCl pH 7.4, 10 mM EDTA).
# 75 μl/well from the reaction plate is transferred to a Multiscreen-IP plate (MultiScreen-IP plates are prepared by added 50 μL of 70% (v/v) ethanol per well and incubated for 5 minutes at room temperature. The ethanol is removed by aspiration via a MultiScreen HTS Vacuum Manifold unit (Millipore, Cat no: MSVMHT500). The plates are washed twice by adding 200 μl/well ddH2O). The MultiScreen-IP plate is incubated at room temperature for 30 minutes to allowing binding of casein to the plate. The MultiScreen-IP plates are washed three times by adding 200 μl/well 100 mM phosphoric acid solution and the gasket is carefully removed from the back of the MultiScreen-IP plate and the plate dried in the oven for 30 minutes. The MultiScreen-IP plate is backsealed, 50 μL of Microscint™20 is added, then the plates are topsealed and radiolabelled casein detected and quantified on a TopCount™ plate-reader using the ^33P scintillation protocol.
row,IC50 [nM],Structure (SMILES)
1,22,"CC(C)(O)c1cc(-c2cncc(-c3cnn(C4CCNCC4)c3)c2)cc(-c2ccccn2)n1 [Example 2.88, 2-[5″-(1-Piperidin-4-yl-1H-pyrazol-4-yl)-[2,2′;4′,3″]terpyridin-6′-yl]-propan-2-ol]"
2,17,CC(C)N1CCC(n2cc(-c3cncc(-c4cc(-c5ccccn5)nc(C(C)(C)O)c4)c3)cn2)CC1 [Example 2.89]
3,71,"Cc1cc(CN2CCN(C(C)C)CC2)ccc1-c1cncc(-c2cc(-c3ccccn3)nc(C(C)(C)O)c2)c1 [Example 2.90, 2-{5″-[4-(4-Isopropyl-piperazin-1-ylmethyl)-2-methyl-phenyl]-[2,2′;4′,3″]terpyridin-6′-yl}-propan-2-ol]"
4,35,"CC1(C)CN(Cc2ccc(-c3cncc(-c4cc(-c5ccccn5)nc(C(C)(C)O)c4)c3)cc2)CCN1 [Example 2.92, 2{-5″-[4-(3,3-Dimethyl-piperazin-1-ylmethyl)-phenyl]-[2,2′;4′,3″]terpyridin-6′-yl}-propan-2-ol]"
5,11,"[2H]C([2H])([2H])Nc1cc(-c2cncc(-c3ccc(CN4CCN(C(C)C)CC4)cc3)c2)cc(-c2ccccn2)n1 [Example 2.100, {5″-[4-(4-Isopropyl-piperazin-1-ylmethyl)-phenyl]-[2,2′;4′,3″]terpyridin-6′-yl}-methyl-d3-amine]"
6,13,"[2H]C([2H])([2H])Nc1cc(-c2cncc(-c3cnn(C)c3)c2)cc(-c2ccccn2)n1 [Example 2.104, Methyl-d3-[5″-(1-methyl-1H-pyrazol-4-yl)-[2,2′;4′,3″]terpyridin-6′-yl]-amine]"
7,9,"CNc1cc(-c2cncc(-c3ccc(C(=O)N4CCN(C)CC4)cc3)c2)cc(-c2ccccn2)n1 [Example 2.106, [4-(6′-Methyl-d3-amino-[2,2′;4′,3″]terpyridin-5″-yl)-phenyl]-(4-methyl-d3-piperazin-1-yl)-methanone]"
8,42,"CCNc1cc(-c2cncc(-c3cccc(CN4CCN(C(C)C)CC4)c3)c2)cc(-c2ccccn2)n1 [Example 2.114, Ethyl-{5″-[3-(4-isopropyl-piperazin-1-ylmethyl)-phenyl]-[2,2′;4′,3″]terpyridin-6′-yl}-amine]"
9,35,"CC(C)(C)N1CCN(Cc2ccc(-c3cncc(-c4cc(N)nc(-c5ccccn5)c4)c3)cc2)CC1 [Example 2.158, 5″-[4-(4-tert-Butyl-piperazin-1-ylmethyl)-phenyl]-[2,2′;4′,3″]terpyridin-6′-ylamine]"

# The remaining lines, values behind:
row,Structure (SMILES),IC50 [nM]
1,"[2H]C([2H])([2H])N1CCN(Cc2ccc(-c3cncc(-c4cc(-c5ccccn5)nc(C(C)(C)O)c4)c3)cc2)CC1 [Example 2.85, 2-{5″-[4-(4-Methyl-d3-piperazin-1-ylmethyl)-phenyl]-[2,2′;4′,3″]terpyridin-6′-yl}-propan-2-ol]",74
2,"Cn1cc(-c2cncc(-c3cc(-c4ccccn4)nc(C(C)(C)O)c3)c2)cn1 [Example 2.86, 2-[5″-(1-Methyl-1H-pyrazol-4-yl)-[2,2′;4′,3″]terpyridin-6′-yl]-propan-2-ol]",92
3,"CC1CN(C(=O)c2ccc(-c3cncc(-c4cc(-c5ccccn5)nc(C(C)(C)O)c4)c3)cc2)CC(C)N1C (centres unmarked) [Example 2.87, {4-[6′-(1-Hydroxy-1-methyl-ethyl)-[2,2′;4′,3″]terpyridin-5″-yl]-phenyl}-(3,4,5-trimethyl-piperazin-1-yl)-methanone]",139
4,"C[C@@H]1CN(Cc2ccc(-c3cncc(-c4cc(-c5ccccn5)nc(C(C)(C)O)c4)c3)cc2)CCN1 [Example 2.91, 2-{5″-[4-((R)-3-Methyl-piperazin-1-ylmethyl)-phenyl]-[2,2′;4′,3″]terpyridin-6′-yl}-propan-2-ol]",32
5,"CC(C)N1CCN(Cc2ccc(-c3cncc(-c4cc(-c5ccccn5)nc(C(C)(C)C)c4)c3)cc2)CC1 [Example 2.95, 6′-tert-Butyl-5″-[4-(4-isopropyl-piperazin-1-ylmethyl)-phenyl]-[2,2′;4′,3″]terpyridine]",209
6,"[2H]C([2H])([2H])Nc1cc(-c2cncc(-c3ccc(CN4CCNCC4)cc3)c2)cc(-c2ccccn2)n1 [Example 2.102, Methyl-d3-[5″-(4-piperazin-1-ylmethyl-phenyl)-[2,2′;4′,3″]terpyridin-6′-yl]-amine]",14
7,"[2H]C([2H])([2H])Nc1cc(-c2cncc(-c3ccc(CN4CCN(C(C)(C)C)CC4)cc3)c2)cc(-c2ccccn2)n1 [Example 2.107, {5″-[4-(4-tert-Butyl-piperazin-1-ylmethyl)-phenyl]-[2,2′;4′,3″]terpyridin-6′-yl}-methyl-d3-amine]",13
8,"CCNc1cc(-c2cncc(-c3cccc(CN4CCN(C(C)(C)C)CC4)c3)c2)cc(-c2ccccn2)n1 [Example 2.111, {5″-[3-(4-tert-Butyl-piperazin-1-ylmethyl)-phenyl]-[2,2′;4′,3″]terpyridin-6′-yl}-ethyl-amine]",154
9,"CCNc1cc(-c2cncc(-c3cc(C)cc(CN)c3)c2)cc(-c2ccccn2)n1 [Example 2.116, [5″-(3-Aminomethyl-5-methyl-phenyl)-[2,2′;4′,3″]terpyridin-6′-yl]-ethyl-amine]",48
10,"CC(C)(C)N1CCN(Cc2cccc(-c3cncc(-c4cc(NC5CC5)nc(-c5ccccn5)c4)c3)c2)CC1 [Example 2.119, {5″-[3-(4-tert-Butyl-piperazin-1-ylmethyl)-phenyl]-[2,2′;4′,3″]terpyridin-6′-yl}-cyclopropyl-amine]",64
11,"CC(C)(C)N1CCN(Cc2ccc(-c3cncc(-c4cc(NC5CC5)nc(-c5ccccn5)c4)c3)cc2)CC1 [Example 2.120, {5″-[4-(4-tert-Butyl-piperazin-1-ylmethyl)-phenyl]-[2,2′;4′,3″]terpyridin-6′-yl}-cyclopropyl-amine]",22
12,"Cc1ccc(-c2cc(-c3cncc(-c4ccc(CN5CCN(C(C)C)CC5)cc4)c3)cc(NC3CC3)n2)o1 [Example 2.125, Cyclopropyl-[5-[4-(4-isopropyl-piperazin-1-ylmethyl)-phenyl]-6′-(5-methyl-furan-2-yl)-[3,4′]bipyridinyl-2′-yl]-amine]",38
13,"CC(C)Nc1cc(-c2cncc(-c3cccc(CN4CCN(C(C)(C)C)CC4)c3)c2)cc(-c2ccccn2)n1 [Example 2.133, {5″-[3-(4-tert-Butyl-piperazin-1-ylmethyl)-phenyl]-[2,2′;4′,3″]terpyridin-6′-yl}-isopropyl-amine]",357
14,"CC(C)Nc1cc(-c2cncc(-c3ccc(CN4CCN(C(C)(C)C)CC4)cc3)c2)cc(-c2ccccn2)n1 [Example 2.134, {5″-[4-(4-tert-Butyl-piperazin-1-ylmethyl)-phenyl]-[2,2′;4′,3″]terpyridin-6′-yl}-isopropyl-amine]",22
15,"Nc1cc(-c2cncc(-c3ccc(CN4CCNCC4)cc3)c2)cc(-c2ccccn2)n1 [Example 2.159, 5″-(4-piperazin-1-ylmethyl-phenyl)-[2,2′;4′,3″]terpyridin-6′-ylamine]",24
16,"CNc1cc(-c2cncc(-c3ccc(CN4CCNCC4)cc3)c2)cc(-c2ccccn2)n1 [Example 2.172, Methyl-[5″-(4-piperazin-1-ylmethyl-phenyl)-[2,2′;4′,3″]terpyridin-6′-yl]-amine]",10
17,"CNc1cc(-c2cncc(-c3cnn(C4CCNCC4)c3)c2)cc(-c2ccn(C)n2)n1 [Example 2.179, Methyl-[6′-(1-methyl-1H-pyrazol-3-yl)-5-(1-piperidin-4-yl-1H-pyrazol-4-yl)-[3,4′]bipyridinyl-2′-yl]-amine]",5
